Activity calls are given as the source filed them. The rule behind the calls is not given here.
Key:
[1] = tested on: MDA-MB-231; test: Induction of autophagy in human MDA-MB-231 cells harboring GFP-mRFP-LC3 assessed as up regulation of LC3II level at 2.5 to 10 uM after 24 hrs by Western blot analysis; assay type: functional, cell-based; conditions: dose 2.5-10 µM
[2] = tested on: MDA-MB-231; test: Antitumor activity against human MDA-MB-231 cells xenografted in nude BALB/c mouse assessed as tumor growth inhibition at 50 mg/kg, po administered once daily for 19 days and measured every 3 days; assay type: functional; conditions: MDA-MB-231, 456 h, time 19 day, read-out: TGI
[3] = tested on: MDA-MB-468; test: Inhibition of colony formation in human MDA-MB-468 cells after 7 days by crystal violet staining based assay; assay type: functional, cell-based; conditions: dose 2.5-10 µM, time 7.0 day
[4] = tested on: MDA-MB-468; test: Induction of apoptosis in human MDA-MB-468 cells assessed as up regulation of Bax after 24 hrs by Western blot analysis; assay type: functional, cell-based; conditions: dose 2.5-10 µM
[5] = tested on: Mus musculus; test: Toxicity in nude BALB/c mouse xenografted with human MDA-MB-231 cells assessed as morphological changes in heart at 25 to 50 mg/kg, po administered once daily for 19 days and measured every 3 days by H and E staining based assay; assay type: organism-based; conditions: in vivo, 456 h, dose 25-50 mg/kg, time 19 day
[6] = tested on: MDA-MB-468; test: Induction of apoptosis in human MDA-MB-468 cells after 24 hrs by Hoechst 33258 staining fluorescence microscopic analysis; assay type: functional, cell-based; conditions: dose 2.5-10 µM
[7] = tested on: MDA-MB-231; test: Induction of autophagy in human MDA-MB-231 cells xenografted in nude BALB/c mouse assessed as increase in LC3II expression at 25 to 50 mg/kg, po administered once daily for 19 days by immunohistochemistry analysis; assay type: functional, organism-based; conditions: dose lower […], dose upper 50.0 mg/kg, time 19.0 day
[8] = AUC(0 to infinity) in Sprague-Dawley rat at 10 mg/kg, po by LC-MS analysis; assay type: ADME, organism-based; parameters: time infinity, dose 10 mg/kg, route po; conditions: in vivo
[9] = tested on: Mus musculus; test: Down regulation of phosphorylation of AKT at S129 residue expression in BALB/c SCID mouse xenogrfted with human MDA-MB-231 cells at 25 to 50 mg/kg, po administered once daily for 19 days by Western blot analysis; assay type: functional, organism-based; conditions: dose lower […], dose upper 50.0 mg/kg, time 19.0 day
[10] = tested on: MDA-MB-231; test: Induction of apoptosis in human MDA-MB-231 cells assessed as up regulation of cleaved caspase 3 after 24 hrs by Western blot analysis; assay type: functional, cell-based; conditions: dose 2.5-10 µM
[11] = tested on: MDA-MB-468; test: Induction of apoptosis in human MDA-MB-468 cells at 5 uM preincubated with 3-MA for 1 hr followed by compound addition and measured after 24 hrs by Annexin V-FITC/propidium iodide staining based flow cytometric analysis; assay type: functional, cell-based
[12] = tested on: MDA-MB-231; test: Induction of apoptosis in human MDA-MB-231 cells after 24 hrs by Hoechst 33258 staining fluorescence microscopic analysis; assay type: functional, cell-based; conditions: dose 2.5-10 µM
[13] = tested on: MDA-MB-231; test: Induction of autophagy in human MDA-MB-231 cells harboring GFP-mRFP-LC3 assessed as autophagic flux at 5 uM after 24 hrs by fluorescence microscopic analysis; assay type: functional, cell-based
[14] = tested on: MDA-MB-468; test: Inhibition of colony formation in human MDA-MB-468 cells at 5 uM after 7 days in presence of 3-MA by crystal violet staining based assay; assay type: functional, cell-based; conditions: time 7.0 day
[15] = tested on: MDA-MB-231; test: Antiproliferative activity against JQ-1 resistant human MDA-MB-231 cells incubated for 24 hrs by MTT assay; assay type: functional, cell-based
[16] = tested on: Mus musculus; test: Toxicity in nude BALB/c mouse xenografted with human MDA-MB-468 cells assessed as morphological changes in lung at 25 to 50 mg/kg, po administered once daily for 19 days and measured every 3 days by H and E staining based assay; assay type: organism-based; conditions: in vivo, 456 h, dose 25-50 mg/kg, time 19 day
[17] = tested on: Mus musculus; test: Toxicity in nude BALB/c mouse xenografted with human MDA-MB-468 cells assessed as morphological changes in heart at 25 to 50 mg/kg, po administered once daily for 19 days and measured every 3 days by H and E staining based assay; assay type: organism-based; conditions: in vivo, 456 h, dose 25-50 mg/kg, time 19 day
[18] = AUC(0 to t) in Sprague-Dawley rat at 10 mg/kg, po by LC-MS analysis; assay type: ADME, organism-based; parameters: dose 10 mg/kg, route po; conditions: in vivo
[19] = AUC(0 to t) in Sprague-Dawley rat at 1 mg/kg, iv by LC-MS analysis; assay type: ADME, organism-based; parameters: dose 1 mg/kg, route iv; conditions: in vivo
[20] = tested on: MDA-MB-231; test: Induction of apoptosis in human MDA-MB-231 cells at 5 uM preincubated with 3-MA for 1 hr followed by compound addition and measured after 24 hrs by Annexin V-FITC/propidium iodide staining based flow cytometric analysis; assay type: functional, cell-based
[21] = tested on: MDA-MB-468; test: Antitumor activity against human MDA-MB-468 cells xenografted in po dosed nude BALB/c mouse assessed as tumor growth inhibition administered once daily for 19 days and measured every 3 days; assay type: functional, organism-based; conditions: dose lower […], dose upper 50.0 mg/kg, time 19.0 day
[22] = Apparent volume of distribution in Sprague-Dawley rat at 1 mg/kg, iv by LC-MS analysis; assay type: ADME, organism-based; conditions: in vivo, read-out: Vz
[23] = tested on: Mus musculus; test: Toxicity in nude BALB/c mouse xenografted with human MDA-MB-231 cells assessed as morphological changes in lung at 25 to 50 mg/kg, po administered once daily for 19 days and measured every 3 days by H and E staining based assay; assay type: organism-based; conditions: in vivo, 456 h, dose 25-50 mg/kg, time 19 day
[24] = tested on: MDA-MB-468; test: Induction of autophagy in human MDA-MB-468 cells harboring GFP-mRFP-LC3 assessed as down regulation of p62 level at 5 uM after 24 hrs by Western blot analysis; assay type: functional, cell-based
[25] = target: Casein kinase II subunit alpha (Homo sapiens, UniProt P68400); test: Inhibition of CK2 (unknown origin)
Sequence of Casein kinase II subunit alpha (P68400 whole entry): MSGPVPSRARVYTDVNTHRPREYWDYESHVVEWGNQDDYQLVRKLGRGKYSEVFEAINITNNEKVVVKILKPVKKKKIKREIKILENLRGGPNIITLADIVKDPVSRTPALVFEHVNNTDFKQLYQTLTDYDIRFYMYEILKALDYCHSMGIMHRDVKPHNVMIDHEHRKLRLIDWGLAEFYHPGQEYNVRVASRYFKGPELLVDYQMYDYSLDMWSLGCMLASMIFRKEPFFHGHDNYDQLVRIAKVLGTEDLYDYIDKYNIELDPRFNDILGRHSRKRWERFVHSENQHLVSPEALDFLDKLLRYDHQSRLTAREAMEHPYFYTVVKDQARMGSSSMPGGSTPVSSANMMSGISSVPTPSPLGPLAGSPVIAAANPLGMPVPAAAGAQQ

[26] = tested on: MDA-MB-468; test: Induction of autophagy in human MDA-MB-468 cells harboring GFP-mRFP-LC3 assessed as up regulation of LC3II level at 2.5 to 10 uM after 24 hrs by Western blot analysis; assay type: functional, cell-based; conditions: dose 2.5-10 µM
[27] = tested on: MDA-MB-231; test: Induction of apoptosis in human MDA-MB-231 cells assessed as up regulation of Bax after 24 hrs by Western blot analysis; assay type: functional, cell-based; conditions: dose 2.5-10 µM
[28] = target: Bromodomain-containing protein 3 (Homo sapiens, UniProt Q15059); test: Inhibition of BRD3 BD1 (unknown origin) incubated for 2 hrs by TR-FRET assay
Sequence of Bromodomain-containing protein 3 (Q15059 whole entry): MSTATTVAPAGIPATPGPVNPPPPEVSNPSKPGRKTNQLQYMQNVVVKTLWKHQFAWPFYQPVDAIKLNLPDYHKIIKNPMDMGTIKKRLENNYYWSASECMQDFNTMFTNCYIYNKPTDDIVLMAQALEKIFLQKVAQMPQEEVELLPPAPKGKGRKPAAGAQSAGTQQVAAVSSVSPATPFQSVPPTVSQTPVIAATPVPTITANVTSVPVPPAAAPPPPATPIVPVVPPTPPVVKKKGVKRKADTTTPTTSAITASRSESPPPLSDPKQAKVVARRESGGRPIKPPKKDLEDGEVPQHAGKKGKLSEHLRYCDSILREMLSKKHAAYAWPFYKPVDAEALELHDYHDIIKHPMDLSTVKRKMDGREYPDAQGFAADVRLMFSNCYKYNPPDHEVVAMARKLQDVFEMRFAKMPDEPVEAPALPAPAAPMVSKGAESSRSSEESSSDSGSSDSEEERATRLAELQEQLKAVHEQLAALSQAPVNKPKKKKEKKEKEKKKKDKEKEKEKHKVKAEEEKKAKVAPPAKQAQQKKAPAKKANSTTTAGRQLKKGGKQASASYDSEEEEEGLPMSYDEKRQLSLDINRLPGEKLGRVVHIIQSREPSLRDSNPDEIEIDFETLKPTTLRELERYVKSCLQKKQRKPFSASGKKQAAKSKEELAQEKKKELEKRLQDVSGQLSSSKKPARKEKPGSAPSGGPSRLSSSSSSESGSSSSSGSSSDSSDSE

[29] = AUC(0 to infinity) in Sprague-Dawley rat at 1 mg/kg, iv by LC-MS analysis; assay type: ADME, organism-based; parameters: time infinity, dose 1 mg/kg, route iv; conditions: in vivo
[30] = target: Bromodomain-containing protein 2 (Homo sapiens, UniProt P25440); test: Inhibition of BRD2 BD1 (unknown origin) incubated for 2 hrs by TR-FRET assay
Sequence of Bromodomain-containing protein 2 (P25440 whole entry): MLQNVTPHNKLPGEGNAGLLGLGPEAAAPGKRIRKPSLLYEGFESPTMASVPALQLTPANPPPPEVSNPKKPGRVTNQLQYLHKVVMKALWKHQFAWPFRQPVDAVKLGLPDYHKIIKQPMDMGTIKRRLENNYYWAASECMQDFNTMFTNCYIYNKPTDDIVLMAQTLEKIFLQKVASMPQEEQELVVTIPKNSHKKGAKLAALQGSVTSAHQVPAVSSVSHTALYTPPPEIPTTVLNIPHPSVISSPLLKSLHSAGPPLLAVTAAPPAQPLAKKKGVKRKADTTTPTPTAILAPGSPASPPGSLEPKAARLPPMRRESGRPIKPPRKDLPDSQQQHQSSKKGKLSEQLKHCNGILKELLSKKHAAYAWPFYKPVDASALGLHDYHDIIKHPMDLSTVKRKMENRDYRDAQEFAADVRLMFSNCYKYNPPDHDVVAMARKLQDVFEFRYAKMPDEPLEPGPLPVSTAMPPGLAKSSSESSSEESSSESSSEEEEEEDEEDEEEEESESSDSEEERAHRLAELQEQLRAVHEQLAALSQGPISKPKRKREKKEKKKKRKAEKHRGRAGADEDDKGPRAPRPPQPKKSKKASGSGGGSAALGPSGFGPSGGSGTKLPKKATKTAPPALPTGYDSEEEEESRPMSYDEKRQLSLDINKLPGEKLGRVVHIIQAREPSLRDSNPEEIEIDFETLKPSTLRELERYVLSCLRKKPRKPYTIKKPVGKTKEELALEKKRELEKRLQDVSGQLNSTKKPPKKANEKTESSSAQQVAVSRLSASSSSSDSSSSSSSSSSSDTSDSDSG

[31] = tested on: Mus musculus; test: Toxicity in nude BALB/c mouse xenografted with human MDA-MB-468 cells assessed as mortality at 25 to 50 mg/kg, po administered once daily for 19 days and measured every 3 days; assay type: organism-based; conditions: in vivo, 456 h, dose 25-50 mg/kg, time 19 day
[32] = tested on: MDA-MB-468; test: Induction of autophagy in human MDA-MB-468 cells harboring GFP-mRFP-LC3 assessed as autophagic flux at 5 uM after 24 hrs by fluorescence microscopic analysis; assay type: functional, cell-based
[33] = tested on: Mus musculus; test: Down regulation of c-Myc expression in BALB/c SCID mouse xenogrfted with human MDA-MB-231 cells at 25 to 50 mg/kg, po administered once daily for 19 days by immunohistochemistry analysis; assay type: functional, organism-based; conditions: dose lower […], dose upper 50.0 mg/kg, time 19.0 day
[34] = tested on: MDA-MB-231; test: Induction of autophagy in human MDA-MB-231 cells harboring GFP-mRFP-LC3 assessed as down regulation of p62 level at 5 uM after 24 hrs by Western blot analysis; assay type: functional, cell-based
[35] = tested on: MDA-MB-231; test: Induction of apoptosis in human MDA-MB-231 cells assessed as down regulation of Bcl2 after 24 hrs by Western blot analysis; assay type: functional, cell-based; conditions: dose 2.5-10 µM

For `COc1cc(OC)c2c(=O)[nH]c(-c3ccc(OCC(=O)Nc4ccc(N5CCN(C)CC5)c(Cl)c4)cc3)nc2c1`, the Activity [1] was “Active”, the inhibition in vivo at 50 mg/kg [2] was 63.8% and the inhibition [3] was “Dose-dependent effect”. For the same compound, the Activity [4] was “Dose-dependent effect”, the Activity [5] was “Non-Toxic” and the Activity [6] was “Dose-dependent effect”. The Activity [7] was “Active”, the AUC(0-inf) [8] was 2090 ng·h/mL and the Activity [9] was “Active”. For the same compound, the Activity [10] was “Dose-dependent effect”, the Activity [11] was “inactive” and the Activity [12] was “Dose-dependent effect”. The Activity [13] was “Active”, the inhibition [14] was “inactive” and the Activity [15] was “Active”. For the same compound, the Activity [16] was “Non-Toxic”, the Activity [17] was “Non-Toxic” and the AUC(0-t) [18] was 2080 ng·h/mL. For the same compound, the AUC(0-t) [19] was 579 ng·h/mL, the Activity [20] was “inactive” and the Activity [21] was “Active”. The Vd [22] was 21.1 L/kg, the Activity [23] was “Non-Toxic” and the Activity [24] was “Active”. For the same compound, the IC50 [25] was 0.23 µM, the Activity [26] was “Active” and the Activity [27] was “Dose-dependent effect”. The IC50 [28] was 9.2 µM, the AUC [29] was 588 ng·h/mL and the IC50 [30] was > 10 µM. The Activity [31] was “Non-Toxic”, the Activity [32] was “Active” and the Activity [33] was “Active”. The Activity [34] was “Active” and the Activity [35] was “Dose-dependent effect”.

— ChEMBL document CHEMBL5053557, “Discovery of Novel Dual-Target Inhibitor of Bromodomain-Containing Protein 4/Casein Kinase 2 Inducing Apoptosis and Autophagy-Associated Cell Death for Triple-Negative Breast Cancer Therapy” (J Med Chem, 2021)
